Measured values reported in patent US10632125B2, “MTH1 inhibitors for treatment of inflammatory and autoimmune conditions” (THOMAS HELLEDAYS STIFTELSE FÖR MEDICINSK FORSKNING, priority 2014, dated 2020).

target: MTH1 (Homo sapiens, UniProt P36639); test: MTH1 enzymatic assay (malachite green, coupled to pyrophosphatase); assay type: biochemical; conditions: dGTP 100 μM, MTH1 6 nM; 96- or 384-well format; read-out: IC50

| Structure (SMILES) | IC50 |
| --- | --- |
| C=CC(=O)Nc1cccc(-c2cc(NC)nc(N)n2)c1C [Example 311, N-{3-[2-Amino-6-(methylamino)pyrimidin-4-yl]-2-methylphenyl}prop-2-enamide] | < 0.2 µM |
| C#CC(=O)Nc1cccc(-c2cc(NC)nc(N)n2)c1 [Example 314, N-{3-[2-Amino-6-(methylamino)pyrimidin-4-yl]phenyl}prop-2-ynamide] | < 0.2 µM |
| CNc1cc(-c2cccc(NC(=O)c3cc(Cl)ccc3O)c2)nc(N)n1 [Example 321, N-{3-[2-Amino-6-(methylamino)pyrimidin-4-yl]phenyl}-5-chloro-2-hydroxybenzamide] | < 0.2 µM |
| CNc1cc(-c2cccc(NC(=O)CCC(=O)N3CCCC3)c2)nc(N)n1 [Example 325, N-{3-[2-Amino-6-(methylamino)pyrimidin-4-yl]phenyl}-4-oxo-4-(pyrrolidin-1-yl)butanamide] | < 0.2 µM |
| CNc1cc(-c2cccc(CN)c2)nc(N)n1 [Example 328, 6-[3-(Aminomethyl)phenyl]-4-N-methylpyrimidine-2,4-diamine] | < 0.2 µM |
| Cc1nc(CCNc2cc(-c3cccc(C)c3C)nc(N)n2)n[nH]1 [Example 332, 6-(2,3-Dimethylphenyl)-4-N-[2-(5-methyl-1H-1,2,4-triazol-3-yl)ethyl]pyrimidine-2,4-diamine] | < 0.2 µM |
| Cc1cccc(-c2cc(NCCn3ccccc3=O)nc(N)n2)c1C [Example 337, 1-(2-{[2-Amino-6-(2,3-dimethylphenyl)pyrimidin-4-yl]amino}ethyl)-1,2-dihydropyridin-2-one] | < 0.2 µM |
| Cc1cccc(-c2cc(NCc3ccc[nH]c3=O)nc(N)n2)c1C [Example 338, 3-({[2-Amino-6-(2,3-dimethylphenyl)pyrimidin-4-yl]amino}methyl)-1,2-dihydropyridin-2-one] | < 0.2 µM |
| Cc1cccc(-c2cc(NCCc3cccc(Cl)c3)nc(N)n2)c1C [Example 341, 4-N-[2-(3-Chlorophenyl)ethyl]-6-(2,3-dimethylphenyl)pyrimidine-2,4-diamine] | < 0.2 µM |
| Cc1cccc(-c2cc(NCCCn3ccnc3)nc(N)n2)c1C [Example 342, 6-(2,3-Dimethylphenyl)-4-N-[3-(1H-imidazol-1-yl)propyl]pyrimidine-2,4-diamine] | < 0.2 µM |
| Cc1cccc(-c2cc(NCCc3ccc(F)cc3)nc(N)n2)c1C [Example 344, 6-(2,3-Dimethylphenyl)-4-N-[2-(4-fluorophenyl)ethyl]pyrimidine-2,4-diamine] | < 0.2 µM |
| Cc1cccc(-c2cc(NCCc3scnc3C)nc(N)n2)c1C [Example 352, 6-(2,3-Dimethylphenyl)-4-N-[2-(4-methyl-1,3-thiazol-5-yl)ethyl]pyrimidine-2,4-diamine] | < 0.2 µM |
| Cc1cccc(-c2cc(NCC3CCCN(c4ccccn4)C3)nc(N)n2)c1C (stereo not drawn) [Example 355, 6-(2,3-Dimethylphenyl)-4-N-{[1-(pyridin-2-yl)piperidin-3-yl]methyl}pyrimidine-2,4-diamine] | < 0.2 µM |
| Cc1cccc(-c2cc(NCc3cnn(-c4ccccc4)n3)nc(N)n2)c1C [Example 356, 6-(2,3-Dimethylphenyl)-4-N-[(2-phenyl-2H-1,2,3-triazol-4-yl)methyl]pyrimidine-2,4-diamine] | < 0.2 µM |
| Cc1cccc(-c2cc(NCCCNS(=O)(=O)c3ccc(Cl)cc3)nc(N)n2)c1C [Example 357, N-(3-{[2-Amino-6-(2,3-dimethylphenyl)pyrimidin-4-yl]amino}propyl)-4-chlorobenzene-1-sulfonamide] | < 0.2 µM |
| Cc1cccc(-c2cc(NCCCNC(=O)Nc3ccc(F)c(F)c3)nc(N)n2)c1C [Example 362, 3-(3-{[2-Amino-6-(2,3-dimethylphenyl)pyrimidin-4-yl]amino}propyl)-1-(3,4-difluorophenyl)urea] | < 0.2 µM |
| Cc1cc2cc(CNc3cc(-c4cccc(C)c4C)nc(N)n3)ccc2[nH]1 [Example 364, 6-(2,3-Dimethylphenyl)-4-N-[(2-methyl-1H-indol-5-yl)methyl]pyrimidine-2,4-diamine] | < 0.2 µM |
| Cc1cccc(-c2cc(NCCCCNC(=O)OC(C)(C)C)nc(N)n2)c1C [Example 370, tert-Butyl N-(4-{[2-amino-6-(2,3-dimethylphenyl)pyrimidin-4-yl]amino}butyl)-carbamate] | < 0.2 µM |
| Cc1cccc(-c2cc(NCCCCCNC(=O)OC(C)(C)C)nc(N)n2)c1C [Example 371, tert-Butyl N-(5-{[2-amino-6-(2,3-dimethylphenyl)pyrimidin-4-yl]amino}pentyl)-carbamate] | < 0.2 µM |
| Cc1cccc(-c2cc(NCCCNS(=O)(=O)c3ccc(S(C)(=O)=O)cc3)nc(N)n2)c1C [Example 375, N-(3-{[2-Amino-6-(2,3-dimethylphenyl)pyrimidin-4-yl]amino}propyl)-4-methanesulfonylbenzene-1-sulfonamide] | < 0.2 µM |
| CC(=O)Nc1ccc(S(=O)(=O)NCCCNc2cc(-c3cccc(C)c3C)nc(N)n2)cc1 [Example 382, N-{4-[(3-{[2-Amino-6-(2,3-dimethylphenyl)pyrimidin-4-yl]amino}propyl)sulfamoyl]-phenyl}acetamide] | < 0.2 µM |
| COc1ccc(S(=O)(=O)NCCNc2cc(-c3cccc(C)c3C)nc(N)n2)cc1 [Example 385, N-(2-{[2-Amino-6-(2,3-dimethylphenyl)pyrimidin-4-yl]amino}ethyl)-4-methoxybenzene-1-sulfonamide] | < 0.2 µM |
| Cc1cccc(-c2cc(NCCCNS(=O)(=O)c3cc(Cl)c(Cl)s3)nc(N)n2)c1C [Example 388, N-(3-{[2-Amino-6-(2,3-dimethylphenyl)pyrimidin-4-yl]amino}propyl)-4,5-dichlorothiophene-2-sulfonamide] | < 0.2 µM |
| Cc1cccc(-c2cc(NCCNc3nc4ccccc4o3)nc(N)n2)c1C [Example 393, 4-N-{2-[(1,3-Benzoxazol-2-yl)amino]ethyl}-6-(2,3-dimethylphenyl)pyrimidine-2,4-diamine] | < 0.2 µM |
| Cc1cccc(-c2cc(NC(C)CCc3ccccc3)nc(N)n2)c1C (stereo not drawn) [Example 394, 6-(2,3-Dimethylphenyl)-4-N-(4-phenylbutan-2-yl)pyrimidine-2,4-diamine] | < 0.2 µM |
| Cc1cccc(-c2cc(NCCNc3nc(Br)ns3)nc(N)n2)c1C [Example 398, 4-N-{2-[(3-Bromo-1,2,4-thiadiazol-5-yl)amino]ethyl}-6-(2,3-dimethylphenyl)pyrimidine-2,4-diamine] | < 0.2 µM |
| Cc1cccc(-c2cc(NCCc3nnc(-c4ccc(F)cc4)o3)nc(N)n2)c1C [Example 400, 6-(2,3-Dimethylphenyl)-4-N-{2-[5-(4-fluorophenyl)-1,3,4-oxadiazol-2-yl]ethyl}pyrimidine-2,4-diamine] | < 0.2 µM |
| Cc1cccc(-c2cc(NCCNS(=O)(=O)c3ccc(S(C)(=O)=O)cc3)nc(N)n2)c1C [Example 401, N-(2-{[2-Amino-6-(2,3-dimethylphenyl)pyrimidin-4-yl]amino}ethyl)-4-methanesulfonylbenzene-1-sulfonamide] | < 0.2 µM |
| Cc1nc(CCNc2cc(-c3cccc(Cl)c3C)nc(N)n2)n[nH]1 [Example 412, 6-(3-chloro-2-methylphenyl)-4-N-[2-(5-methyl-1H-1,2,4-triazol-3-yl)ethyl]pyrimidine-2,4-diamine] | < 0.2 µM |
| Cc1c(Cl)cccc1-c1cc(NCCc2ccc(S(=O)(=O)N(C)C)cc2)nc(N)n1 [Example 414, 4-(2-{[2-amino-6-(3-chloro-2-methylphenyl)pyrimidin-4-yl]amino}ethyl)-N,N-dimethylbenzene-1-sulfonamide] | < 0.2 µM |
